27 compounds from patent US20250388565A1, “ESTROGEN RECEPTOR ALPHA DEGRADERS AND METHODS OF USE THEREOF” (Relay Therapeutics, Inc., priority 2022, published 2025) can be followed below.

This experiment has as its target T1, ERα protein (HiBiT-tagged) in ESR1_HiBiT KI MCF7 cells (Homo sapiens, UniProt P03372).
T1 sequence (P03372 1-595): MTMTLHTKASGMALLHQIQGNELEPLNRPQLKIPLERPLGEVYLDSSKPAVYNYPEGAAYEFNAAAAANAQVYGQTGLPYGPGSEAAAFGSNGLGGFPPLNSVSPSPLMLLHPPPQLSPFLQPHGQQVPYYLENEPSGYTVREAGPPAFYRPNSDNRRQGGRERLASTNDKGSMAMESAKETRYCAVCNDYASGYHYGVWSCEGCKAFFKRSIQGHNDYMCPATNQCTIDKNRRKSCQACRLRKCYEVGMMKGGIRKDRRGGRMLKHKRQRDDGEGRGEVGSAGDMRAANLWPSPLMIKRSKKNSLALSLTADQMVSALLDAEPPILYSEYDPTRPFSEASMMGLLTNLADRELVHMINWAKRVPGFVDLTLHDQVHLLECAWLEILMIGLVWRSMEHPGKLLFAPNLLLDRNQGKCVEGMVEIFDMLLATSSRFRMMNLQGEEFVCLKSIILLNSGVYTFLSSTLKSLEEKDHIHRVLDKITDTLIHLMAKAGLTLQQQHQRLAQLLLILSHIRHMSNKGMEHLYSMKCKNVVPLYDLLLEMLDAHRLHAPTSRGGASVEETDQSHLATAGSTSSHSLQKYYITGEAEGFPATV
Kind of experiment: Nano Glo HiBiT Lytic Degradation Assay. The experiment is classed as cell-based. The conditions noted are these: 6 hours with compound, 14-point dose response 1:3, bell-shape curve fit, half-maximal effect of first Hill model, read-out: MCF7 ESR1 HiBiT - (DC50). The method, boiled down:
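Lytic Nano-Glo HiBiT luminescence quantified ERα remaining after a 6 h, 37° C compound exposure of MCF7 cells carrying endogenous HiBiT-tagged ESR1. Dosing used 14 threefold dilutions from a 10 mM DMSO stock (0.1% DMSO final), run in duplicate. Signals were corrected for cell-free background and expressed relative to DMSO, and DC50 came from a bell-shaped curve fit (first Hill model half-maximum).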

For orientation: DC50 means the midpoint of the concentration-degradation curve.

Structures are written as SMILES.

As to `O=C1CC[C@H](N2Cc3cc(N4CCN(C(=O)C5CCN(c6ccc([C@@H]7c8ccc(O)cc8CC[C@@H]7c7ccccc7)cc6)CC5)CC4)ccc3C2=O)C(=O)N1` [II-68], the DC50 stood at 0.5 nM.
For the compound `Cc1cc(F)cc(C)c1[C@@H]1CCc2cc(O)ccc2[C@@H]1c1ccc(N2CCC(CN3CCN(c4ccc5c(c4)CN([C@H]4CCC(=O)NC4=O)C5=O)CC3)CC2)cc1` [II-71], the DC50 is at least 10000 nM.
Consider `Cc1cc(F)cc(C)c1[C@H]1CCc2cc(O)ccc2[C@H]1c1ccc(N2CCC(CN3CCN(c4ccc5c(c4)CN([C@H]4CCC(=O)NC4=O)C5=O)CC3)CC2)cc1` [II-72], for which the DC50 was at least 10000 nM.
Consider `Cc1cc(F)cc(F)c1[C@@H]1CCc2cc(O)ccc2[C@@H]1c1ccc(N2CCC(CN3CCN(c4ccc5c(c4)CN([C@H]4CCC(=O)NC4=O)C5=O)CC3)CC2)cc1` [II-73], for which the DC50 is 361 nM.
In the case of `Cc1cc(F)cc(F)c1[C@H]1CCc2cc(O)ccc2[C@H]1c1ccc(N2CCC(CN3CCN(c4ccc5c(c4)CN([C@H]4CCC(=O)NC4=O)C5=O)CC3)CC2)cc1` [II-74], the DC50 was found to be 0.13 nM.
For `Cc1cc(F)c([C@H]2CCc3cc(O)ccc3[C@H]2c2ccc(N3CCC(CN4CCN(c5ccc6c(c5)CN([C@H]5CCC(=O)NC5=O)C6=O)CC4)CC3)cc2)cc1F` [II-75], the DC50 was determined as 0.73 nM.
With `Cc1cc(F)c([C@@H]2CCc3cc(O)ccc3[C@@H]2c2ccc(N3CCC(CN4CCN(c5ccc6c(c5)CN([C@H]5CCC(=O)NC5=O)C6=O)CC4)CC3)cc2)cc1F` [II-76] the figure was at least 10000 nM; with `O=C1CC[C@H](N2Cc3cc(N4CCN(CC5CCN(c6ccc([C@H]7c8ccc(O)cc8CC[C@H]7c7ccccc7)nc6)CC5)CC4)ccc3C2=O)C(=O)N1` [II-77], at least 10000 nM; with `O=C1CC[C@H](N2Cc3cc(N4CCN(CC5CCN(c6ccc([C@@H]7c8ccc(O)cc8CC[C@@H]7c7ccccc7)nc6)CC5)CC4)ccc3C2=O)C(=O)N1` [II-78], 1.37 nM.
As for `O=C1CC[C@H](N2Cc3cc(N4CCN(CC5CCN(c6ccc([C@H]7c8ccc(O)cc8CC[C@H]7c7ccccc7)cn6)CC5)CC4)ccc3C2=O)C(=O)N1` [II-79], the DC50 was at least 10000 nM.
Take `O=C1CC[C@H](N2Cc3cc(N4CCN(CC5CCN(c6ccc([C@@H]7c8ccc(O)cc8CC[C@@H]7c7ccccc7)cn6)CC5)CC4)ccc3C2=O)C(=O)N1` [II-80]: the DC50 was found to be 0.68 nM.
Regarding `O=C1CC[C@H](N2Cc3cc(N4CCN(CC5CCN(c6ccc([C@H]7c8ccc(O)cc8CC[C@H]7c7ccccc7)cc6F)CC5)CC4)ccc3C2=O)C(=O)N1` [II-81], the DC50 was at least 10000 nM.
With `O=C1CC[C@H](N2Cc3cc(N4CCN(CC5CCN(c6ccc([C@@H]7c8ccc(O)cc8CC[C@@H]7c7ccccc7)cc6F)CC5)CC4)ccc3C2=O)C(=O)N1` [II-82] the figure was 0.84 nM.
With `O=C1CC[C@H](N2Cc3cc(N4CCN(CC5CCN(c6c(F)cc([C@H]7c8ccc(O)cc8CC[C@H]7c7ccccc7)cc6F)CC5)CC4)ccc3C2=O)C(=O)N1` [II-83], the DC50 was 424 nM.
`O=C1CC[C@H](N2Cc3cc(N4CCN(CC5CCN(c6c(F)cc([C@@H]7c8ccc(O)cc8CC[C@@H]7c7ccccc7)cc6F)CC5)CC4)ccc3C2=O)C(=O)N1` [II-84]: the DC50 worked out at 0.8 nM.
As to `O=C1CC[C@H](N2Cc3cc(N4CCN(CC5CCN(c6ccc([C@H]7c8ccc(O)cc8CC[C@H]7c7ccccc7)c(F)c6)CC5)CC4)ccc3C2=O)C(=O)N1` [II-85], the DC50 is 1090 nM.
With `O=C1CC[C@H](N2Cc3cc(N4CCN(CC5CCN(c6ccc([C@@H]7c8ccc(O)cc8CC[C@@H]7c7ccccc7)c(F)c6)CC5)CC4)ccc3C2=O)C(=O)N1` [II-86] the figure was 0.61 nM.
Turning to `O=C1CC[C@H](N2Cc3cc(N4CCN(CC5CCN(c6ccc([C@@H]7c8ccc(O)cc8CC[C@@H]7c7ccc(F)cc7)cc6)CC5)CC4)ccc3C2=O)C(=O)N1` [II-94], the DC50 is 0.64 nM.
For the compound `O=C1CC[C@H](N2Cc3cc(N4CCN(CCC5CCN(c6ccc([C@@H]7c8ccc(O)cc8CC[C@@H]7c7ccccc7)cc6)CC5)CC4)ccc3C2=O)C(=O)N1` [II-97], the DC50 was 0.79 nM.
As to `O=C1CC[C@H](N2Cc3cc(N4CCN(CCC5CCN(c6ccc([C@H]7c8ccc(O)cc8CC[C@H]7c7ccccc7)cc6)CC5)CC4)ccc3C2=O)C(=O)N1` [II-98], the DC50 is at least 10000 nM.
Consider `O=C1CC[C@H](N2Cc3cc(N4CCN(CC5CCN(c6ccc([C@H]7c8ccc(O)cc8CC[C@H]7c7ccc(F)cc7)cc6)CC5)CC4)ccc3C2=O)C(=O)N1` [II-101], for which the 50% degradation concentration (DC50) is at least 10000 nM.
Regarding `O=C1CC[C@H](N2Cc3cc(N4CCN(CC5CCN(c6cc(F)c([C@@H]7c8ccc(O)cc8CC[C@@H]7c7ccccc7)c(F)c6)CC5)CC4)ccc3C2=O)C(=O)N1` [II-102], the DC50 was found to be 0.15 nM.
Take `O=C1CC[C@H](N2Cc3cc(N4CCN(CC5CCN(c6cc(F)c([C@H]7c8ccc(O)cc8CC[C@H]7c7ccccc7)c(F)c6)CC5)CC4)ccc3C2=O)C(=O)N1` [II-103]: the 50% degradation concentration (DC50) is at least 10000 nM.
In the case of `O=C1CCC(N2Cc3cc(C4=CCN(CC5CCN(c6ccc([C@@H]7c8ccc(O)cc8CC[C@@H]7c7ccccc7)cc6)CC5)CC4)ccc3C2=O)C(=O)N1` (stereo partly drawn) [II-104], the DC50 was found to be 22 nM.
With `O=C1CCC(N2Cc3cc(C4CCN(CC5CCN(c6ccc([C@@H]7c8ccc(O)cc8CC[C@@H]7c7ccccc7)cc6)CC5)CC4)ccc3C2=O)C(=O)N1` (stereo partly drawn) [II-105] the figure was at least 10000 nM.
With `O=C1CCC(N2Cc3cc(N4CCN(CC5CCN(c6ccc([C@@H]7c8ccc(O)cc8CC[C@@H]7c7ccc(F)cc7)cc6)CC5)CC4)ccc3C2=O)C(=O)N1` (stereo partly drawn) [II-109] the figure was 1.05 nM; with `O=C1CC[C@@H](N2Cc3cc(N4CCN(CC5CCN(c6ccc([C@@H]7c8ccc(O)cc8CC[C@@H]7c7ccc(F)cc7)cc6)CC5)CC4)ccc3C2=O)C(=O)N1` [II-110], 0.88 nM.
